For data set [1], the system named is C6. As to the kind of experiment: Inhibition of DNA synthesis in rat C6 cells assessed as reduction in cell proliferation measured after 24 to 48 hrs by BrdU proliferation assay. The note with it: time 24-48 hrs. Type of data set: functional, cell-based.
Data set [2] has as its system MCF7. As to the kind of experiment: Cytotoxicity against human MCF7 cells assessed as cell viability measured after 24 hrs by MTT assay. The note with it: MCF7, 24 h. Type of data set: functional, cell-based.
Another data set relates to NIH3T3. As to the kind of experiment: Cytotoxicity against mouse NIH3T3 cells assessed as cell viability measured after 24 hrs by MTT assay. In kind it is cell-based. Particulars: NIH3T3, 24 h.
A short description of data set [3]: Selectivity index, ratio of IC50 for cytotoxicity against mouse NIH3T3 cells to IC50 for cytotoxicity against rat C6 cells. In kind it is toxicity, cell-based. Particulars: NIH3T3 cells versus C6 cells, read-out: Ratio IC50.
The subject of another data set is A549. As to the kind of experiment: Cytotoxicity against human A549 cells assessed as cell viability measured after 24 hrs by MTT assay. Type of data set: functional, cell-based. Particulars: A549, 24 h. On the technique in general: Formazan colour is commonly taken as a measure of viable cells.
Data set [4] concerns C6. As to the kind of experiment: Induction of apoptosis in rat C6 cells assessed as apoptotic cells at IC50 concentration measured after 24 hrs by Annexin V-FITC/PI staining based flow cytometry method relative to control. In kind it is functional. In general terms: In flow cytometry, cells or beads pass a laser one at a time.
Data set [5] can be described thus: Selectivity index, ratio of IC50 for cytotoxicity against mouse NIH3T3 cells to IC50 for cytotoxicity against human HepG2 cells. In kind it is toxicity, cell-based. The note with it: NIH3T3 cells versus HepG2 cells, read-out: Ratio IC50.
Data set [6] can be described thus: Selectivity index, ratio of IC50 for cytotoxicity against mouse NIH3T3 cells to IC50 for cytotoxicity against human HT-29 cells. In kind it is toxicity, cell-based. The note with it: NIH3T3 cells versus HT-29 cells, read-out: Ratio IC50.
Data set [7] concerns HT-29. As to the kind of experiment: Cytotoxicity against human HT-29 cells assessed as cell viability measured after 24 hrs by MTT assay. Type of data set: functional, cell-based. Particulars: HT-29, 24 h.
Data set [8] in a line: Selectivity index, ratio of IC50 for cytotoxicity against mouse NIH3T3 cells to IC50 for cytotoxicity against human A549 cells. In kind it is toxicity, cell-based. Particulars: NIH3T3 cells versus A549 cells, read-out: Ratio IC50.
Data set [9] can be described thus: Selectivity index, ratio of IC50 for cytotoxicity against mouse NIH3T3 cells to IC50 for cytotoxicity against human MCF7 cells. Type of data set: toxicity, cell-based. Particulars: NIH3T3 cells versus MCF7 cells, read-out: Ratio IC50.
The subject of data set [10] is C6. As to the kind of experiment: Cytotoxicity against rat C6 cells assessed as cell viability measured after 24 hrs by MTT assay. Type of data set: functional, cell-based. Particulars: C6, 24 h.
Data set [11] deals with HepG2. As to the kind of experiment: Cytotoxicity against human HepG2 cells assessed as cell viability measured after 24 hrs by MTT assay. In kind it is functional, cell-based. Particulars: HepG2, 24 h.
Data set [12] in a line: Drug metabolism in human HepG2 cells assessed as oxidative dehalogenation after 24 hrs by LCMS-IT-TOF analysis. Type of data set: ADME, cell-based. Particulars: hepg2, 24 h.
Data set [13] relates to HepG2. As to the kind of experiment: Induction of apoptosis in human HepG2 cells assessed as early apoptotic cells at IC50 concentration measured after 24 hrs by Annexin V-FITC/PI staining based flow cytometry method (reference value: 0.9%). Type of data set: functional.
For data set [14], the system named is HepG2. Put plainly: Induction of apoptosis in human HepG2 cells assessed as necrotic cells at IC50 concentration measured after 24 hrs by Annexin V-FITC/PI staining based flow cytometry method (reference value: 4.6%). Type of data set: functional.
The subject of data set [15] is HepG2. Put plainly: Induction of apoptosis in human HepG2 cells assessed as viable cells at IC50 concentration measured after 24 hrs by Annexin V-FITC/PI staining based flow cytometry method (reference value: 87.8%). In kind it is functional.
Data set [16] concerns HepG2. Put plainly: Induction of apoptosis in human HepG2 cells assessed as late apoptotic cells at IC50 concentration measured after 24 hrs by Annexin V-FITC/PI staining based flow cytometry method (reference value: 8.7%). Type of data set: functional.
The test system of data set [17] is HepG2. Put plainly: Inhibition of DNA synthesis in human HepG2 cells assessed as reduction in cell proliferation measured after 24 to 48 hrs by BrdU proliferation assay. Type of data set: functional, cell-based. Particulars: time 24-48 hrs.
Data set [18] can be described thus: Drug metabolism in human HepG2 cells assessed as amine metabolite formation after 24 hrs by LCMS-IT-TOF analysis. Type of data set: ADME, cell-based. Particulars: hepg2, 24 h.
The subject of data set [19] is MCF7. As to the kind of experiment: Induction of apoptosis in human MCF7 cells assessed as late apoptotic cells at IC50 concentration measured after 24 hrs by Annexin V-FITC/PI staining based flow cytometry method (reference value: 1.8%). Type of data set: functional.
In data set [20] the test system is HT-29. Put plainly: Induction of apoptosis in human HT-29 cells assessed as necrotic cells at IC50 concentration measured after 24 hrs by Annexin V-FITC/PI staining based flow cytometry method (reference value: 7.2%). In kind it is functional.
Data set [21] deals with MCF7. Put plainly: Induction of apoptosis in human MCF7 cells assessed as necrotic cells at IC50 concentration measured after 24 hrs by Annexin V-FITC/PI staining based flow cytometry method (reference value: 1%). In kind it is functional.
The subject of data set [22] is MCF7. As to the kind of experiment: Inhibition of DNA synthesis in human MCF7 cells assessed as reduction in cell proliferation measured after 24 to 48 hrs by BrdU proliferation assay. In kind it is functional, cell-based. The note with it: time 24-48 hrs.
Data set [23] deals with HT-29. As to the kind of experiment: Induction of apoptosis in human HT-29 cells assessed as late apoptotic cells at IC50 concentration measured after 24 hrs by Annexin V-FITC/PI staining based flow cytometry method (reference value: 1.5%). In kind it is functional.
Data set [24] relates to HT-29. Put plainly: Induction of apoptosis in human HT-29 cells assessed as viable cells at IC50 concentration measured after 24 hrs by Annexin V-FITC/PI staining based flow cytometry method (reference value: 90.3%). Type of data set: functional.
For data set [25], the system named is HT-29. As to the kind of experiment: Induction of apoptosis in human HT-29 cells assessed as early apoptotic cells at IC50 concentration measured after 24 hrs by Annexin V-FITC/PI staining based flow cytometry method (reference value: 1.1%). Type of data set: functional.
The test system of data set [26] is MCF7. Put plainly: Induction of apoptosis in human MCF7 cells assessed as viable cells at IC50 concentration measured after 24 hrs by Annexin V-FITC/PI staining based flow cytometry method (reference value: 94.9%). Type of data set: functional.
Data set [27] concerns MCF7. As to the kind of experiment: Induction of apoptosis in human MCF7 cells assessed as early apoptotic cells at IC50 concentration measured after 24 hrs by Annexin V-FITC/PI staining based flow cytometry method (reference value: 2.2%). In kind it is functional.
The subject of data set [28] is HT-29. As to the kind of experiment: Inhibition of DNA synthesis in human HT-29 cells assessed as reduction in cell proliferation measured after 24 to 48 hrs by BrdU proliferation assay. In kind it is functional, cell-based. Particulars: time 24-48 hrs.

pIC50: −log10 of the molar value.

In the case of `Cc1ccc2oc(-c3ccc(NC(=O)CN4CCN(CCCN(C)C)CC4)cc3)nc2c1`, the inhibition result with C6 [1] is “Dose-dependent effect”. Besides, the negative-log IC50 (pIC50) (usually the negative decadic logarithm of the IC50, by convention in mol/L) in the data set on MCF7 [2] is 4.72; with NIH3T3, 4.58; in the data set on A549, 4.98; in the data set with HT-29 [7], 5.41; with C6 [10], 5.74; in the data set on HepG2 [11], 5.50. The selectivity ratio was determined as 14.6 in data set [3]; 8.36 in [5]; 6.79 in data set [6]; 2.5 in [8]; 1.38 in data set [9]. In addition, the Activity in the data set with C6 [4] came out at 14%.

In the case of `CN(C)CCN1CCN(CC(=O)Nc2ccc(-c3nc4cc(Cl)ccc4o3)cc2)CC1`, the Drug metabolism entry in [12] and in data set [18] was “Metabolite_Detected” throughout. For the same compound, the inhibition entry in the data set on C6 [1] and in the data set with HepG2 [17] was “Dose-dependent effect” throughout. The pIC50 in the data set with MCF7 [2] was 5.10; in the data set on NIH3T3, 4.54; in the data set with A549, 5.15; in the data set with HT-29 [7], 5.35; in the data set with C6 [10] it was 5.99; with HepG2 [11] it was 5.58. Further, the Activity with HepG2 [13] is recorded as 3.7%; in the data set on HepG2 [14], 0.8%; in the data set with HepG2 [15] it was 85.2%; in the data set with HepG2 [16], 10.3%; with C6 [4], 10.7%. The selectivity ratio is 27.8 in data set [3]; 10.9 in data set [5]; 6.41 in [6]; 4.04 in [8]; 3.62 in [9].

With `COc1cccc2c1C(=O)c1c(O)c3c(c(O)c1C2=O)C[C@@](O)(C(=O)CO)C[C@@H]3O[C@H]1C[C@H](N)[C@H](O)[C@H](C)O1` [DOXORUBICIN], the inhibition result in the data set with C6 [1], in the data set on MCF7 [22], in the data set with HepG2 [17] and in the data set with HT-29 [28] was “Dose-dependent effect” in each case. The Activity is listed as 0.9% with HepG2 [13]; 49.3% in the data set on MCF7 [19]; 3.5% in the data set on HT-29 [20]; 6.8% in the data set with MCF7 [21]; 4.2% with HepG2 [14]; 6.6% with HT-29 [23]. Further, the Activity worked out at 73.6% in the data set with HepG2 [15]; 21.4% in the data set on HepG2 [16]; 88% with HT-29 [24]; 1.9% with HT-29 [25]; 35.7% in the data set on C6 [4]; 42.9% in the data set with MCF7 [26]. The Activity in the data set on MCF7 [27] is listed as 1%. Moreover, the pIC50 is 4.97 with A549, 4.79 in the data set with HT-29 [7], 4.59 in the data set with C6 [10] and 4.74 in the data set with HepG2 [11].

On to `CN(C)CCN1CCN(CC(=O)Nc2ccc(-c3nc4cc(F)ccc4o3)cc2)CC1`, for which the inhibition entry in the data set on C6 [1] was “Dose-dependent effect”. In addition, the pIC50 with MCF7 [2] is 4.68; in the data set with NIH3T3, 4.14; in the data set with A549, 4.78; with HT-29 [7], 5.09; in the data set on C6 [10], 5.36; with HepG2 [11], 4.73. The selectivity ratio came to 16.4 in data set [3]; 3.84 in data set [5]; 8.79 in [6]; 4.33 in data set [8]; 3.46 in [9]. For the same compound, the Activity with C6 [4] is 46%.

`Cc1cc(-c2nc3cc(Cl)ccc3o2)ccc1NC(=O)CCl`: the pIC50 with MCF7 [2] is below 4.00; in the data set with NIH3T3 it was 5.06; in the data set with A549, 4.04; with HT-29 [7], below 4.00; in the data set with C6 [10] it was below 4.00; in the data set with HepG2 [11], 4.46. Moreover, the selectivity ratio in [3] was below 0.09; in data set [5] it was 0.25; in data set [6], below 0.09; in [8], 0.09; in [9], below 0.09.

For `Cc1ccc2oc(-c3ccc(NC(=O)CN4CCN(CCN(C)C)CC4)cc3)nc2c1`, the inhibition entry in the data set on C6 [1] and in the data set on HT-29 [28] was “Dose-dependent effect” each time. In addition, the negative-log IC50 (pIC50) was 4.63 with MCF7 [2]; 4.54 with NIH3T3; 5.44 in the data set on A549; 5.75 with HT-29 [7]; 5.79 in the data set on C6 [10]; 5.90 with HepG2 [11]. The Activity turned out to be 0.4% with HT-29 [20]; 8.5% with HT-29 [23]; 76% with HT-29 [24]; 15% in the data set with HT-29 [25]; 19.3% with C6 [4]. For the same compound, the selectivity ratio in [3] stood at 17.8; in [5] it was 22.8; in [6], 16.2; in data set [8], 7.9; in [9] it was 1.22.

`Cc1cc(-c2nc3cc(Cl)ccc3o2)ccc1NC(=O)CN1CCN(CCCN(C)C)CC1`: the negative-log IC50 (pIC50) in the data set with MCF7 [2] is 4.20; with NIH3T3, 4.54; in the data set on A549 it was 4.98; in the data set with HT-29 [7], 5.04; in the data set on C6 [10] it was 4.85; in the data set with HepG2 [11], 4.95. The selectivity ratio was found to be 2.01 in [3]; 2.56 in data set [5]; 3.12 in data set [6]; 2.73 in [8]; 0.45 in data set [9].

Regarding `Cc1cc(-c2nc3ccccc3o2)ccc1NC(=O)CN1CCN(CCCN(C)C)CC1`, the pIC50 in the data set with MCF7 [2] was 4.95; in the data set on NIH3T3, 4.47; in the data set on A549, 4.66; with HT-29 [7], 4.81; in the data set with C6 [10] it was 4.41; with HepG2 [11], 5.67. The Activity was found to be 5% with HepG2 [13], 0.8% with HepG2 [14], 77.5% in the data set on HepG2 [15] and 16.7% with HepG2 [16]. Besides, the selectivity ratio is 0.86 in data set [3]; 15.5 in data set [5]; 2.17 in [6]; 1.52 in [8]; 2.97 in data set [9]. Also, the inhibition result in the data set on HepG2 [17] was “Dose-dependent effect”.

(Values after ChEMBL document CHEMBL4732094, “Synthesis of some new benzoxazole derivatives and investigation of their anticancer activities” (Eur J Med Chem, 2021).)
